From patent US20220031849A1, “NANOPARTICLE ENCAPSULATION TO TARGET G PROTEIN-COUPLED RECEPTORS IN ENDOSOMES” (TAKEDA PHARMACEUTICAL COMPANY LIMITED, priority 2018, published 2022)
Ends that are not written are not given here.

What was measured:
HEK-293 cells = assay: Uptake and disassembly of Coumarin 153 loaded nanoparticles; assay type: cell-based; settings: 30 min pre-incubation with inhibitor
Excerpt: The uptake and disassembly of DIPMA nanoparticles loaded with Coumarin153 (DIPMA-CO), which emits in an aqueous environment but not in the hydrophobic core, were examined by high content imaging (confocal microscopy).
Uptake and disassembly of nanoparticles in HEK-293 cells. Coumarin 153 is a solvatochromic dye that fluoresces only in polar solvents, allowing detection of the release of Coumarin loaded in the core of nanoparticles observed as the appearance of Coumarin fluorescence in intact cells. nanoparticles were self-assembled using 0.5 mg of Coumarin 153 per mg of DIPMA polymer (DIPMA-CO). HEK-293 cells were pre-incubated for 30 min with vehicle (Hank's Balanced Salt Solution, HBSS), dynamin inhibitor (Dyngo4a, Dy4, 30 μM), clathrin inhibitor (Pitstop, PS2, 30 μM), vacuolar H^+ATPase inhibitor (Bafilomycin A1, BFA, 1 μM) or NH4Cl (20 mM) to alkalinize endosomes. Images were obtained with a Leica SP8 confocal microscope using HCX PL APO 63× (NA […]) oil objective. Images were taken every 10 see for 30 min, where the first 5 readings correspond to baseline images prior the addition of DIPMA-CO nanoparticles (20 μg/mL). All images were analyzed using Fiji.

[1] = tested on: capsaicin-evoked mechanical allodynia in mice; assay: Capsaicin-evoked mechanical allodynia, von Frey filaments; assay type: in vivo; settings: for Time at which the effect is lost / not detected: i.t.
Description: However, the same behaviour on the decay of the effect was observed.
AP, nanoparticles or vehicle (5 μl) was administered by intrathecal injection to mice 30 min before intraplantar injection to the hind paw of capsaicin, which activates TRPV1 to cause acute allodynia and neurogenic inflammation. Withdrawal responses to stimulation of the plantar surface of the injected hindpaw with calibrated von Frey filaments (VFF) were measured before and after capsaicin. In mice receiving vehicle or DIPMA-empty nanoparticles, capsaicin decreased the VFF threshold from 0.5-4 h, consistent with mechanical allodynia, which returned to baseline after 24 h (FIG. 18B).
Drug administration. Mice. […] Rats. […] Treatments were administered 10 days after sural nerve transection.
Acute pain. Capsaicin (CAP, 5 μg) or vehicle (0.9% NaCl) was administered by subcutaneous intraplantar (i.pl.) injection (10 μL) into the left hindpaw of sedated mice (2% isoflurane) 30 min after i.t. injection of drugs.
Mechanical allodynia and hyperalgesia. Mechanical nociception was assessed by measuring withdrawal thresholds to stimulation of the plantar surfaces of the ipsilateral and contralateral hindpaws with calibrated von Frey filaments (VFF). Prior to experiments, mice were acclimatized to the experimental apparatus and environment for 2 h on 2 successive days. VFF withdrawal thresholds were measured in triplicate to establish a baseline for each mouse. For the CAP model, VFF withdrawal thresholds were measured at 30 min intervals for the first 2 h after i.t. drug administration, then at 60 min intervals for the next 2 h, and finally after 24 h. For the CFA model, VFF withdrawal thresholds were measured every 30 min for the first 3 h after i.t. drug administration, then at 60 min intervals for the next 5 h, and finally after 24 h. Results were normalized to the baseline withdrawal thresholds of each mouse.

[2] = tested on: CFA-evoked mechanical hyperalgesia in mice; assay: Complete Freund's adjuvant-evoked mechanical hyperalgesia, von Frey filaments; assay type: in vivo; settings: for Inhibition of CFA hyperalgesia at 1.5 h: 5 μl i.t., 48 h after CFA
[3] = tested on: SNS-evoked mechanical hyperalgesia in rats; assay: Sural nerve spared (SNS) mechanical hyperalgesia, Randall-Selitto; assay type: in vivo
[4] = tested on: chronic pain model in rats; assay: Chronic pain model by ligation of the sciatic nerve, Randall-Selitto (Example 10); assay type: in vivo; settings: 300 nM aprepitant, i.t. 10 μL
Excerpt: The chronic pain model was induced by ligation of the sciatic nerve, allowing sensitisation to pain (allodynia, hyperalgesia) to develop for 10 days. Sensitisation was confirmed measuring baseline (pre-surgery) and post-surgery paw withdrawal using a Randall-Selitto electronic algesimeter (Eva Santos-Nogueira, et al. J Neurotrauma. 2012, 29(5): 898-904). […] As is evident, aprepitant-loaded nanoparticles provide greater analgesia and longer lasting effects.

[5] = tested on: C-fiber reflex and wind-up in SNS rats; assay: C-fiber-evoked nociceptive reflex and wind-up in SNS rats; assay type: in vivo; settings: 10 μl, 1 μM intrathecal
[6] = tested on: NK1R-positive lamina I neurons; assay: Cell-attached patch clamp of SP-induced excitation in rat spinal cord slices; assay type: cell-based; settings: 100 nM AP preincubation, washed; SP 1 μM, 2 min
Description: The firing time was determined as the duration of the response to last action potential.

[7] = tested on: CFA-induced mechanical hyperalgesia; settings: Proc. Natl. Acad. Sci. USA. 114(46):12309-12314; cited from earlier work

For `CO/C1=C\C(C)=C\[C@@H](C)[C@@H](O)[C@@H](C)C/C(C)=C/C=C/[C@H](OC)[C@@H]([C@@H](C)[C@@H](O)[C@H](C)[C@@]2(O)C[C@@H](O)[C@H](C)[C@@H](C(C)C)O2)OC1=O` [Bafilomycin A1], the “Effect of inhibitor on cellular fluorescence of DIPMA-CO nanoparticles” value (from here on “Effect of inhibitor”) (HEK-293 cells) was “suppressed fluorescence” and the “Effect of inhibitor” value (HEK-293 cells; listed as Bafilomycin A) was “inhibited the accumulation of Coumarin 153 cellular fluorescence”.
For `O=C(N/N=C/c1cc(O)c(O)cc1O)c1cc2ccccc2cc1O` [Dyngo4a], the “Effect of inhibitor” value (HEK-293 cells) was “inhibited the accumulation of Coumarin 153 cellular fluorescence”.
In the case of `Cl.N` [NH4Cl], the “Effect of inhibitor” value (HEK-293 cells) is reported as “suppressed fluorescence”.
In the case of `O=C1NC(=NS(=O)(=O)c2cccc3ccccc23)S/C1=C\c1ccc(Br)cc1` [PitStop2], the “Effect of inhibitor” value (HEK-293 cells) is reported as “inhibited the accumulation of Coumarin 153 cellular fluorescence”.
In the case of `C[C@@H](O[C@H]1OCCN(Cc2nc(=O)[nH][nH]2)[C@H]1c1ccc(F)cc1)c1cc(C(F)(F)F)cc(C(F)(F)F)c1` [aprepitant, 5-([(2R,3S)-2-((R)-1-[3,5-Bis(trifluoromethyl)phenyl]ethoxy)-3-(4-fluorophenyl)morpholino]methyl)-1H-1,2,4-triazol-3(2H)-one], the “Inhibition of capsaicin-evoked allodynia at 1 h” value ([1]; 5 μl i.t., 100 nM AP, 30 min before capsaicin) is reported as 16±4%, the “Time at which the effect is lost / not detected” value ([1]; 100 nM AP) is reported as 3 h and the “Time at which the effect is lost / not detected” value ([1]; 100 nM AP, listed as AP) is reported as 1.5 h. The “Analgesia on the first hour” value ([1]; single i.t. dose 30 minutes prior to capsaicin (Example 9)) was 30%, the “Inhibition of CFA hyperalgesia at 1.5 h” value ([2]; 100 nM AP) was 30±6% and the “Inhibition of CFA hyperalgesia at 1.5 h” value ([2]; 300 nM AP) was 47±3%. The “Duration of reversal of hyperalgesia” value ([2]; free AP 100 or 300 nM, DIPMA-AP 100 nM AP, i.t.) was 2 to 3 h, the “Effect on withdrawal threshold” value ([3]; 10 μl i.t., 100 nM, 10 days after SNS) was “did not modify withdrawal threshold” and the “Maximum inhibition of hyperalgesia, after 1 h” value ([3]; 10 μl i.t., 300 nM) was 40±2%. The “Time of return to baseline” value ([3]; i.t., 300 nM) was 2.5 h, the “Inhibition of hyperalgesia after 1 h” value ([3]; i.t., 1 μM) was 75±4% and the “Time of return to baseline” value ([3]; i.t., 1 μM) was 3 h. The Duration of effect [4] was 2 h, the “Improvement in pressure, Randall-Selitto” value [4] was 20 g and the Pain recovery [4] was ~25%. For the same molecule, the “Effect on C-reflex” value [5] was “decreased the C-reflex, but only at 30 min”, the Effect on wind-up [5] was “did not affect wind-up” and the “Effect on SP-induced firing of spinal neurons” value [6] was “did not affect the onset, rate or duration of SP-induced firing”.
With `CN1CC[C@]23c4c5ccc(O)c4O[C@H]2[C@@H](O)C=C[C@H]3[C@H]1C5` [morphine] the “Effect on mechanical hyperalgesia after 0.5 h” value ([2]; 3 mg/kg, i.p.) was “fully reversed the mechanical hyperalgesia”, the “Time at which the effect waned to baseline” value ([2]; 3 mg/kg, i.p.) was 3 h and the “Duration of full reversal of hyperalgesia” value ([3]; morphine) was 2 h. For the same molecule, the “Time after which the effect was absent” value ([3]; morphine) was 2.5 h.
In the case of “CGRP8-37-Chol: cholestanol conjugate of CGRP8-37 (VTHRLAGLLSRSGGVVKNNFVPTNVGSKAF; ends and bridges not checked; also: cholestanol conjugate; UniProt P06881 90-119, looked up, fragment)”, the “Reversal of mechanical hyperalgesia” value [7] is given as ~20%.
In the case of “CGRP8-37: a membrane-impermeant CLR antagonist (VTHRLAGLLSRSGGVVKNNFVPTNVGSKAF; ends and bridges not checked; UniProt P06881 90-119, looked up, fragment)”, the “Reversal of mechanical hyperalgesia” value [7] is listed as “not”.
